Values joined by “and” are separate entries in the source; they are usually repeats but may differ in a detail not shown here. Equal entries are not always repeated. Where two headings read alike, the source gives them in different places. Positions of bridges follow the written chain, without caps; N, C: chain ends. No end group written: not given here.
Columns and labels:
SARS-CoV-2 Spike protein = SARS-CoV-2 Spike protein (Severe acute respiratory syndrome coronavirus 2, UniProt P0DTC2); assay: Ternary binding of SARS-CoV-2 Spike protein (293T cells expressing Spike-GFP, IgG-AF647, flow cytometry); assay type: cell-based; details: 293T cells expressing Spike-GFP; IgG-AF647 10 μg/ml; repeat values/batches listed separately; read-out: SARS-CoV-2 Ternary binding EC50
Procedure: 293T cells stably expressing SARS-CoV-2 Spike-GFP protein on their surface were incubated with a concentration range of compound for 30 minutes at 37° C.-5% CO2 in Roswell Park Memorial Institute Medium (RPMI)-5% low IgG serum with 10 μg/ml IgG-Alexa Fluor® 647 (AF647). The cells were washed twice using the same medium, resuspended in phosphate-buffered saline (PBS)-1% bovine serum albumin (BSA), and acquired on Attune™ NxT Flow Cytometer. In some embodiments, mean fluorescence intensity of AF647 as well as […] AF647 positive in GFP positive gate are reported as readouts in this assay.

[1] = molecular target: T1, SARS-CoV-2 Spike A (wild-type) (Severe acute respiratory syndrome coronavirus 2, UniProt P0DTC2); assay: MSD ACE2 competition assay (inhibition of Spike binding with ACE2, ECL), A (wild-type)
T1 construct: purchased Meso Scale Diagnostics, LLC V-PLEX SARS-CoV-2 Panel 13 (ACE2) Kit / Panel 23 (ACE2) Kit

[2] = IC50 Wild Type, Wild Type Spike

Q: What does the source list for `CC[C@H](C)[C@H](NC(=O)[C@H](CC(C)C)NC(=O)[C@H](CC(=O)O)NC(=O)[C@H](CO)NC(=O)[C@@H](NC(=O)[C@H](CCCNC(=N)N)NC(=O)[C@H](CCSC)NC(=O)[C@H](CO)NC(=O)[C@H](C)NC(=O)[C@H](CCC(=O)O)NC(=O)[C@H](C)NC(=O)[C@H](Cc1c[nH]cn1)NC(=O)CNC(=O)[C@H](CC(C)C)NC(=O)[C@H](CCC(=O)O)NC(=O)[C@H](CC(=O)O)NC(=O)[C@H](CC(C)C)NC(=O)[C@H](CC(C)C)NC(=O)[C@H](CCCNC(=N)N)NC(=O)[C@H](CCSC)NC(=O)[C@@H](NC(=O)[C@H](CCC(=O)O)NC(=O)[C@H](Cc1ccc(O)cc1)NC(=O)[C@@H](NC(=O)[C@H](CCCCN)NC(=O)[C@H](CCC(N)=O)NC(=O)[C@H](CC(C)C)NC(=O)[C@@H](NC(=O)[C@H](Cc1c[nH]c2ccccc12)NC(=O)[C@H](CCC(=O)O)NC(=O)[C@H](CCCCN)NC(=O)[C@@H](N)CC(=O)O)[C@@H](C)CC)[C@@H](C)CC)[C@@H](C)CC)C(C)C)C(=O)N[C@@H](Cc1ccc(O)cc1)C(=O)N[C@@H](CCC(=O)O)C(=O)N[C@@H](Cc1ccccc1)C(=O)N[C@@H](CCSC)C(=O)N[C@@H](CCCCN)C(=O)N[C@@H](CCCCN)C(=O)NCC(=O)NCC(=O)NCC(=O)NCC(=O)N[C@@H](CC(=O)O)C(=O)N[C@H]1CSSC[C@@H](C(=O)N[C@H](C(=O)O)[C@@H](C)O)NC(=O)[C@H](Cc2c[nH]c3ccccc23)NC(=O)[C@H](C(C)C)NC(=O)[C@H](CC(C)C)NC(=O)[C@H](CCC(=O)O)NC(=O)CNC(=O)[C@H](CC(C)C)NC(=O)[C@H](Cc2c[nH]cn2)NC(=O)[C@H](Cc2c[nH]c3ccccc23)NC(=O)[C@H](C)NC1=O` [Compound 106]?
A: EC50 (SARS-CoV-2 Spike protein): 2.6 nM and 2.5 nM; IC50 [1, 2]: 22.1 nM

Q: With “Ac-QKIYEICRLLDELGHAEASMRCSDLIYEFMKKGDCAWHLGELVWCT-NH2 (disulfide 7-22, 35-45) [Compound 140]” as the molecule, how does the EC50 (SARS-CoV-2 Spike protein) read?
A: Its EC50 is greater than 100 nM.

Q: What about the IC50 ([1]; read-out: IC50 Wild Type, Wild Type Spike) of the same molecule?
A: The IC50 was 1560 nM.

Q: What does the source list for “Ac-DCAWHLGELVWCTILQKIYEIMRLLDELGHAEASMRVSDLIYEFMKK (disulfide 2-12) [Compound 122]”?
A: EC50 (SARS-CoV-2 Spike protein): > 10 nM; IC50 [1, 2]: 33.5 nM

Q: Which EC50 (SARS-CoV-2 Spike protein) does the source give for `CC[C@H](C)[C@H](NC(=O)[C@H](CC(C)C)NC(=O)[C@H](CC(=O)O)NC(=O)[C@H](CO)NC(=O)[C@@H](NC(=O)[C@H](CCCNC(=N)N)NC(=O)[C@H](CCSC)NC(=O)[C@H](CO)NC(=O)[C@H](C)NC(=O)[C@H](CCC(=O)O)NC(=O)[C@H](C)NC(=O)[C@H](Cc1c[nH]cn1)NC(=O)CNC(=O)[C@H](CC(C)C)NC(=O)[C@H](CCC(=O)O)NC(=O)[C@H](CC(=O)O)NC(=O)[C@H](CC(C)C)NC(=O)[C@H](CC(C)C)NC(=O)[C@H](CCCNC(=N)N)NC(=O)[C@H](CCSC)NC(=O)[C@@H](NC(=O)[C@H](CCC(=O)O)NC(=O)[C@H](Cc1ccc(O)cc1)NC(=O)[C@@H](NC(=O)[C@H](CCCCN)NC(=O)[C@H](CCC(N)=O)NC(=O)[C@H](CC(C)C)NC(=O)[C@@H](NC(=O)[C@H](Cc1c[nH]c2ccccc12)NC(=O)[C@H](CCC(=O)O)NC(=O)[C@H](CCCCN)NC(=O)[C@H](CC(=O)O)NC(C)=O)[C@@H](C)CC)[C@@H](C)CC)[C@@H](C)CC)C(C)C)C(=O)N[C@@H](Cc1ccc(O)cc1)C(=O)N[C@@H](CCC(=O)O)C(=O)N[C@@H](Cc1ccccc1)C(=O)N[C@@H](CCSC)C(=O)N[C@@H](CCCCN)C(=O)N[C@@H](CCCCN)C(=O)NCC(=O)N[C@@H](CCC(N)=O)C(=O)N[C@@H](C)C(=O)N1CCC[C@H]1C(=O)N[C@@H](CC(=O)O)C(=O)N[C@H]1CSSC[C@@H](C(=O)N[C@H](C(=O)O)[C@@H](C)O)NC(=O)[C@H](Cc2c[nH]c3ccccc23)NC(=O)[C@H](C(C)C)NC(=O)[C@H](CC(C)C)NC(=O)[C@H](CCC(=O)O)NC(=O)CNC(=O)[C@H](CC(C)C)NC(=O)[C@H](Cc2c[nH]cn2)NC(=O)[C@H](Cc2c[nH]c3ccccc23)NC(=O)[C@H](C)NC1=O` [Compound 109] here?
A: The EC50 was 1.2 nM and 2.2 nM.

Q: And the IC50 [1, 2]?
A: The IC50 was 15.9 nM.

Q: `CC[C@H](C)[C@H](NC(=O)[C@H](CC(C)C)NC(=O)[C@H](CC(=O)O)NC(=O)[C@H](CO)NC(=O)[C@@H](NC(=O)[C@H](CCCNC(=N)N)NC(=O)[C@H](CCSC)NC(=O)[C@H](CO)NC(=O)[C@H](C)NC(=O)[C@H](CCC(=O)O)NC(=O)[C@H](C)NC(=O)[C@H](Cc1c[nH]cn1)NC(=O)CNC(=O)[C@H](CC(C)C)NC(=O)[C@H](CCC(=O)O)NC(=O)[C@H](CC(=O)O)NC(=O)[C@H](CC(C)C)NC(=O)[C@H](CC(C)C)NC(=O)[C@H](CCCNC(=N)N)NC(=O)[C@H](CCSC)NC(=O)[C@@H](NC(=O)[C@H](CCC(=O)O)NC(=O)[C@H](Cc1ccc(O)cc1)NC(=O)[C@@H](NC(=O)[C@H](CCCCN)NC(=O)[C@H](CCC(N)=O)NC(=O)[C@H](CC(C)C)NC(=O)[C@@H](NC(=O)[C@H](Cc1c[nH]c2ccccc12)NC(=O)[C@H](CCC(=O)O)NC(=O)[C@H](CCCCN)NC(=O)[C@@H](N)CC(=O)O)[C@@H](C)CC)[C@@H](C)CC)[C@@H](C)CC)C(C)C)C(=O)N[C@@H](Cc1ccc(O)cc1)C(=O)N[C@@H](CCC(=O)O)C(=O)N[C@@H](Cc1ccccc1)C(=O)N[C@@H](CCSC)C(=O)N[C@@H](CCCCN)C(=O)N[C@@H](CCCCN)C(=O)NCC(=O)N[C@@H](CC(=O)O)C(=O)N[C@H]1CSSC[C@@H](C(=O)N[C@H](C(=O)O)[C@@H](C)O)NC(=O)[C@H](Cc2c[nH]c3ccccc23)NC(=O)[C@H](C(C)C)NC(=O)[C@H](CC(C)C)NC(=O)[C@H](CCC(=O)O)NC(=O)CNC(=O)[C@H](CC(C)C)NC(=O)[C@H](Cc2c[nH]cn2)NC(=O)[C@H](Cc2c[nH]c3ccccc23)NC(=O)[C@H](C)NC1=O` [Compound 113] was tested. Which EC50 (SARS-CoV-2 Spike protein) did it give?
A: Its EC50 is 0.48 nM and 0.47 nM.

Q: And the IC50 [1, 2]?
A: The IC50 was 41.2 nM and 52.9 nM.

Q: For `CC[C@H](C)[C@H](NC(C)=O)C(=O)N[C@@H](CC(C)C)C(=O)N[C@@H](CCC(N)=O)C(=O)N[C@@H](CCCCN)C(=O)N[C@H](C(=O)N[C@@H](Cc1ccc(O)cc1)C(=O)N[C@@H](CCC(=O)O)C(=O)N[C@H](C(=O)N[C@@H](CCSC)C(=O)N[C@@H](CCCNC(=N)N)C(=O)N[C@@H](CC(C)C)C(=O)N[C@@H](CC(C)C)C(=O)N[C@@H](CC(=O)O)C(=O)N[C@@H](CCC(=O)O)C(=O)N[C@@H](CC(C)C)C(=O)NCC(=O)N[C@@H](Cc1c[nH]cn1)C(=O)N[C@@H](C)C(=O)N[C@@H](CCC(=O)O)C(=O)N[C@@H](C)C(=O)N[C@@H](CO)C(=O)N[C@@H](CCSC)C(=O)N[C@@H](CCCNC(=N)N)C(=O)N[C@H](C(=O)N[C@@H](CO)C(=O)N[C@@H](CC(=O)O)C(=O)N[C@@H](CC(C)C)C(=O)N[C@H](C(=O)N[C@@H](Cc1ccc(O)cc1)C(=O)N[C@@H](CCC(=O)O)C(=O)N[C@@H](Cc1ccccc1)C(=O)N[C@@H](CCSC)C(=O)N[C@@H](CCCCN)C(=O)N[C@@H](CCCCN)C(=O)NCC(=O)N[C@@H](CC(=O)O)C(=O)N[C@H]1CSSC[C@@H](C(=O)N[C@H](C(=O)O)[C@@H](C)O)NC(=O)[C@H](Cc2c[nH]c3ccccc23)NC(=O)[C@H](C(C)C)NC(=O)[C@H](CC(C)C)NC(=O)[C@H](CCC(=O)O)NC(=O)CNC(=O)[C@H](CC(C)C)NC(=O)[C@H](Cc2c[nH]cn2)NC(=O)[C@H](Cc2c[nH]c3ccccc23)NC(=O)[C@H](C)NC1=O)[C@@H](C)CC)C(C)C)[C@@H](C)CC)[C@@H](C)CC` [Compound 116], which EC50 (SARS-CoV-2 Spike protein) is on record?
A: Its EC50 is 9.3 nM and 11 nM.

Q: What about the IC50 [1, 2] of the same molecule?
A: The IC50 was > 100 nM (2×) and 114 nM.

From patent publication US20260306644A1, “ANTIBODY RECRUITING MOLECULES FOR THE TREATMENT OF CORONAVIRUS DISEASE-19” (priority 2023, published 2026)
